Measurements from US20050169984A1, “Pharmaceutical hard capsule containing inorganic substance” (DAIICHI SUNTORY PHARMA CO., LTD., priority 2004, published 2005).

Legend:
[1] = background statement; cited from earlier work
[2] = Generation of Compound 2 on sealed non-contact storage of faropenem daloxate with hard gelatin capsule (HPLC peak area ratio); assay type: physicochemical
From the text: (drifting moisture) for 7 days, and observed for the change. 1, generation quantity of Compound 2 has increased and hard gelatin capsule has insolubilized after 3 days of preservation. From the result, it is confirmed that insolubilization of hard gelatin capsule is caused by low molecular, gaseous aldehyde-like substance generated from degradation of faropenem daloxate.
FIG. 2 is showing the testing condition of observation for change while faropenem daloxate is kept with hard gelatin capsule without any contact with the capsule in sealed glass container at 60° C. (drifting moisture) for 7 days.

- Generation quantity of Compound 2 (%) ([2]; 60° C./drifting humidity/3 days): 0.02%
- Generation quantity of Compound 2 (%) ([2]; 60° C./drifting humidity/5 days): 0.04%
- Generation quantity of Compound 2 (%) ([2]; 60° C./drifting humidity/7 days): 0.07%
Compound: Cc1oc(=O)oc1COC(=O)C1=C([C@H]2CCCO2)S[C@@H]2[C@@H]([C@@H](C)O)C(=O)N12 [faropenem daloxate, (5-methyl-2-oxo-1,3-dioxolene-4-yl)methyl (5R,6S)-6-[(R)-1-hydroxyethyl]-7-oxo-3-[(R)-2-tetrahydrofuryl]-4-thia-1-azabicyclo[3.2.0]hept-2-ene-2-carboxylate]
- oral absorbability [1]: ≥ 70%
